Several values for one entry are separate records, joined by “and”; a condition that tells them apart may be missing. Equal values may be shown once. After the bases stand the sugars from the 5' end (letter, count) and the backbone: PS all phosphorothioate, else s phosphorothioate and o phosphodiester by linkage. Methylation of C is not given here. e = 2'-O-(2-methoxyethyl) (MOE); k = constrained ethyl (cEt); d = 2'-deoxy (DNA)
Target: IRF4
Settings: ASO

Sequence | target mRNA inhibition (SK-MEL-28, 4 µM) [%] | target mRNA inhibition (MM.1R, 1 µM) | also measured
CTACAAAATGCCTCCA (sugars k3 d10 k3, PS) | 42 | – | –
CTACAAAGAGCACTGC (sugars k3 d10 k3, PS) | 53 | – | –
CTACACCTACACAGGC (sugars k3 d10 k3, PS) | 16 | – | –
CTACAGATCTCAGCAA (sugars k3 d10 k3, PS) | 18 | – | –
CTACATCTACTCCAGA (sugars k3 d10 k3, PS) | 22 | – | –
CTACATTTCTTATGCA (sugars k3 d10 k3, PS) | 39 | – | –
CTAGAGGTGCCTTCTT (sugars k3 d10 k3, PS) | 26 | – | –
CTAGATAGCATTCTTA (sugars k3 d10 k3, PS) | 39 | – | –
CTATAGTGTTCCAGGA (sugars kdddddddddkekeke, PS) | – | 12% | –
CTATAGTGTTCCAGGA (sugars kkdddddddddekeke, PS) | – | 48% | –
CTATAGTGTTCCAGGA (sugars kkdddddddddkdkdk, PS) | – | 49% | target mRNA inhibition (MM.1R, 0.074 µM): 19%; target mRNA inhibition (MM.1R, 0.222 µM): 23%; target mRNA inhibition (MM.1R, 0.666 µM): 42%; target mRNA inhibition (MM.1R, 2 µM): 68%
CTATGCTAGAGAACAT (sugars k3 d10 k3, PS) | 23 | – | –
CTCAGCAAGTGTCTTC (sugars k3 d10 k3, PS) | 45 | – | –
CTCATAGGTGTACACG (sugars k3 d10 k3, PS) | 59 | – | –
CTCGAGGCCAACGACT (sugars k3 d10 k3, PS) | 1 | – | –
CTCTACTGGAGTCAAG (sugars k3 d10 k3, PS) | 25 | – | –
CTCTATAGTGTTCCAG (sugars k3 d10 k3, PS) | 66 | – | –
CTCTATAGTGTTCCAG (sugars kdddddddddkekeke, PS) | – | 11% | –
CTCTGACAAGAACTGC (sugars k3 d10 k3, PS) | 30 | – | –
CTCTTTAAAATATCGC (sugars k3 d10 k3, PS) | 56 | – | –
CTGAGATAGGAAGCAC (sugars k3 d10 k3, PS) | 26 | – | –
CTGCAAATCCCTCTTG (sugars k3 d10 k3, PS) | -33 | – | –
CTGCATTTGCAAATAA (sugars k3 d10 k3, PS) | -21 | – | –
CTGCGAAGCGCGCGCG (sugars k3 d10 k3, PS) | – | -6% | –
CTGCTCACTAAGCTTG (sugars k3 d10 k3, PS) | 73 | – | target mRNA inhibition (SK-MEL-28, 0.185 µM): 6% and 5% and -1%; target mRNA inhibition (SK-MEL-28, 15 µM): 78% and 80% and 94%
CTGCTGCCCAATACAT (sugars k3 d10 k3, PS) | 47 | – | –

Sequence | target mRNA inhibition (SK-MEL-28, 4 µM) [%] | target mRNA inhibition (MM.1R, 1 µM) | also measured
CTGCTTGAGGTTTTCC (sugars e1 k2 d9 k2 e2, PS) | – | 52% | target mRNA inhibition (MM.1R, 0.074 µM): 6%; target mRNA inhibition (MM.1R, 0.222 µM): 21%; target mRNA inhibition (MM.1R, 0.666 µM): 38%; target mRNA inhibition (MM.1R, 2 µM): 60%
CTGCTTGAGGTTTTCC (sugars kkddddddddddkeke, PS) | – | 44% | –
CTGCTTGAGGTTTTCC (sugars kkkddddddddkekek, PS) | – | 26% | –
CTGGAGGTCGAACCTC (sugars k3 d10 k3, PS) | 2 | – | –
CTGGATATGTGGTGTT (sugars k3 d10 k3, PS) | – | 30% | –
CTGGGCCTTGCCAGTG (sugars k3 d10 k3, PS) | -14 | – | –
CTGTAAGGGCTGCTCA (sugars k3 d10 k3, PS) | 56 | – | –
CTGTATAGTTCTCAAC (sugars k3 d10 k3, PS) | 52 | – | –
CTGTATGGAACCCCAA (sugars k3 d10 k3, PS) | – | 3% | –
CTGTTACCGATGCTTC (sugars kkddddddddddkeke, PS) | – | 43% and 37% | –
CTGTTACCGATGCTTC (sugars kkdddddddddkekek, PS) | – | 52% and 44% | –
CTTAAGCTAAACTCCT (sugars k3 d10 k3, PS) | 27 | – | –
CTTAGAATGAGAGGTG (sugars k3 d10 k3, PS) | – | 1% | –
CTTAGGAACGAAGAGC (sugars k3 d10 k3, PS) | 7 | – | –
CTTCACTACCTGCAGC (sugars k3 d10 k3, PS) | 22 | – | –
CTTCATTTACTGTTAC (sugars k3 d10 k3, PS) | 31 | – | –
CTTCTTTATGCGAAGA (sugars k3 d10 k3, PS) | -5 | – | –
CTTGATAAAGGCTGAA (sugars e1 k2 d9 k2 e2, PS) | – | 17% | –
CTTGATAAAGGCTGAA (sugars k3 d10 k3, PS) | 60 | – | –
CTTGATAAAGGCTGAA (sugars kkddddddddddkeke, PS) | – | 4% | –
CTTGATAAAGGCTGAA (sugars kkdddddddddkdkdk, PS) | – | 1% | –
CTTGATAAAGGCTGAA (sugars kkdddddddddkekek, PS) | – | 12% | –
CTTGATAAAGGCTGAA (sugars kkkdddddddddkeke, PS) | – | 24% | –
CTTGCAGCTCTGACAA (sugars k3 d10 k3, PS) | 9 | – | –
CTTGCCAGTGGTGGCC (sugars k3 d10 k3, PS) | 16 | – | –

Reference: the OligoGym collection
